Assay results as given in ChEMBL document CHEMBL4699440, “Comprehensive review on the anti-bacterial activity of 1,2,3-triazole hybrids” (Eur J Med Chem, 2019).
Converted amounts (≈) assume the structure as drawn.

Legend:
Type in all cases: functional
Bacillus cereus [1] = test: Antibacterial activity against Bacillus cereus ATCC 6630 incubated for 24 hrs
Pseudomonas fluorescens = test: Antibacterial activity against Pseudomonas fluorescens NCIM 2173 incubated for 24 hrs
Penicillium chrysogenum = test: Antifungal activity against Penicillium chrysogenum NCIM 723 incubated for 48 hrs
Aspergillus niger = test: Antifungal activity against Aspergillus niger NCIM 1196 incubated for 48 hrs
[2] = system: Sphingomonas paucimobilis; test: Antibacterial activity against Flavobacterium devorans ATCC 10829 incubated for 24 hrs
Curvularia lunata = test: Antifungal activity against Curvularia lunata NCIM 1131 incubated for 48 hrs
Staphylococcus aureus [3] = test: Antibacterial activity against Staphylococcus aureus ATCC 29737 incubated for 24 hrs
Micrococcus luteus = test: Antibacterial activity against Micrococcus Luteus ATCC 398 incubated for 24 hrs
Escherichia coli [4] = test: Antibacterial activity against Escherichia coli NCIM 2256 incubated for 24 hrs
Bacillus cereus [5] = test: Antibacterial activity against Bacillus cereus by agar dilution method
Staphylococcus aureus [6] = test: Antibacterial activity against Staphylococcus aureus by agar dilution method
Escherichia coli [7] = test: Antibacterial activity against Escherichia coli by agar dilution method
Pseudomonas aeruginosa [8] = test: Antibacterial activity against Pseudomonas aeruginosa by agar dilution method
Streptococcus pyogenes = test: Antibacterial activity against Streptococcus pyogenes ATCC 35552 incubated for 24 hrs by tube dilution method
Staphylococcus aureus [9] = test: Antibacterial activity against Staphylococcus aureus ATCC 25923 incubated for 24 hrs by tube dilution method
Klebsiella pneumoniae [10] = test: Antibacterial activity against Klebsiella pneumoniae ATCC 15380 incubated for 24 hrs by tube dilution method
Pseudomonas aeruginosa [11] = test: Antibacterial activity against Pseudomonas aeruginosa ATCC 12454 incubated for 24 hrs by tube dilution method
Escherichia coli [12] = test: Antibacterial activity against Escherichia coli ATCC 25922 incubated for 24 hrs by tube dilution method
Pseudomonas aeruginosa [13] = test: Antibacterial activity against Pseudomonas aeruginosa ATCC 27853 by CLSI-based broth dilution method
Klebsiella pneumoniae [14] = test: Antibacterial activity against Klebsiella pneumoniae ATCC 27736 by CLSI-based broth dilution method
Enterococcus faecium = test: Antibacterial activity against vancomycin-resistant Enterococcus faecium by CLSI-based broth dilution method; conditions: time 24 hrs
Staphylococcus aureus [15] = test: Antibacterial activity against methicillin-sensitive Staphylococcus aureus by CLSI-based broth dilution method
Escherichia coli [16] = test: Antibacterial activity against ESBL-producing Escherichia coli ATCC 25925 by CLSI-based broth dilution method
Staphylococcus aureus [17] = test: Antibacterial activity against methicillin-resistant Staphylococcus aureus ATCC 25923 by CLSI-based broth dilution method

MIC (Bacillus cereus [1]) | MIC (Pseudomonas fluorescens) | MIC (Penicillium chrysogenum) | MIC (Aspergillus niger) | MIC [2] | MIC (Curvularia lunata) | MIC (Staphylococcus aureus [3]) | MIC (Micrococcus luteus) | MIC (Escherichia coli [4]) | Structure (SMILES) | other results
2 µg/mL (≈ 5.44 µM) | 2 µg/mL (≈ 5.44 µM) | 2 µg/mL (≈ 5.44 µM) | 2 µg/mL (≈ 5.44 µM) | 2 µg/mL (≈ 5.44 µM) | 2 µg/mL (≈ 5.44 µM) | 2 µg/mL (≈ 5.44 µM) | 2 µg/mL (≈ 5.44 µM) | 2 µg/mL (≈ 5.44 µM) | O=c1cc(OCc2cn(Cc3cccc(Cl)c3)nn2)c2ccccc2o1 | –
2 µg/mL (≈ 4.85 µM) | 2 µg/mL (≈ 4.85 µM) | 2 µg/mL (≈ 4.85 µM) | 2 µg/mL (≈ 4.85 µM) | 2 µg/mL (≈ 4.85 µM) | 2 µg/mL (≈ 4.85 µM) | 2 µg/mL (≈ 4.85 µM) | 2 µg/mL (≈ 4.85 µM) | 2 µg/mL (≈ 4.85 µM) | O=c1cc(OCc2cn(Cc3ccc(Br)cc3)nn2)c2ccccc2o1 | –
2 µg/mL (≈ 5.76 µM) | 2 µg/mL (≈ 5.76 µM) | 2 µg/mL (≈ 5.76 µM) | 2 µg/mL (≈ 5.76 µM) | 2 µg/mL (≈ 5.76 µM) | 2 µg/mL (≈ 5.76 µM) | 2 µg/mL (≈ 5.76 µM) | 2 µg/mL (≈ 5.76 µM) | 2 µg/mL (≈ 5.76 µM) | Cc1cc(OCc2cn(Cc3ccccc3)nn2)cc2oc(=O)ccc12 | –

The remaining lines, values behind:

Structure (SMILES) | MIC (Bacillus cereus [1]) | MIC (Pseudomonas fluorescens) | MIC (Penicillium chrysogenum) | MIC (Aspergillus niger) | MIC [2] | MIC (Curvularia lunata) | MIC (Staphylococcus aureus [3]) | MIC (Micrococcus luteus) | MIC (Escherichia coli [4]) | other results
Cc1cc(OCc2cn(Cc3cccc([N+](=O)[O-])c3)nn2)cc2oc(=O)ccc12 | 2 µg/mL (≈ 5.1 µM) | 2 µg/mL (≈ 5.1 µM) | 2 µg/mL (≈ 5.1 µM) | 2 µg/mL (≈ 5.1 µM) | 2 µg/mL (≈ 5.1 µM) | 2 µg/mL (≈ 5.1 µM) | 2 µg/mL (≈ 5.1 µM) | 2 µg/mL (≈ 5.1 µM) | 2 µg/mL (≈ 5.1 µM) | –
O=c1cc(OCc2cn(Cc3ccc(Cl)cc3)nn2)c2ccccc2o1 | 2 µg/mL (≈ 5.44 µM) | 2 µg/mL (≈ 5.44 µM) | 2 µg/mL (≈ 5.44 µM) | 2 µg/mL (≈ 5.44 µM) | 2 µg/mL (≈ 5.44 µM) | 2 µg/mL (≈ 5.44 µM) | 2 µg/mL (≈ 5.44 µM) | 2 µg/mL (≈ 5.44 µM) | 2 µg/mL (≈ 5.44 µM) | –
COc1ccc(-c2nn(-c3ccccc3)cc2/C=N/NC(=O)c2cccc(-n3cc(-c4ccccc4)nn3)c2)cc1 | – | – | – | – | – | – | – | – | – | MIC (Bacillus cereus [5]): 2 µg/mL (≈ 3.71 µM); MIC (Staphylococcus aureus [6]): 2 µg/mL (≈ 3.71 µM); MIC (Escherichia coli [7]): 2 µg/mL (≈ 3.71 µM); MIC (Pseudomonas aeruginosa [8]): 2 µg/mL (≈ 3.71 µM)
Cc1ccc(-c2nn(-c3ccccc3)cc2/C=N/NC(=O)c2cccc(-n3cc(-c4ccccc4)nn3)c2)cc1 | – | – | – | – | – | – | – | – | – | MIC (Bacillus cereus [5]): 2 µg/mL (≈ 3.82 µM); MIC (Staphylococcus aureus [6]): 2 µg/mL (≈ 3.82 µM); MIC (Escherichia coli [7]): 2 µg/mL (≈ 3.82 µM); MIC (Pseudomonas aeruginosa [8]): 2 µg/mL (≈ 3.82 µM)
O=C(N/N=C/c1cn(-c2ccccc2)nc1-c1cccc2ccccc12)c1cccc(-n2cc(-c3ccccc3)nn2)c1 | – | – | – | – | – | – | – | – | – | MIC (Bacillus cereus [5]): 2 µg/mL (≈ 3.57 µM); MIC (Staphylococcus aureus [6]): 2 µg/mL (≈ 3.57 µM); MIC (Escherichia coli [7]): 2 µg/mL (≈ 3.57 µM); MIC (Pseudomonas aeruginosa [8]): 2 µg/mL (≈ 3.57 µM)
Cc1ccc(OCc2cn(Cc3cccc(Cl)c3)nn2)c(-c2nn(-c3ccccc3)cc2C=O)c1 | – | – | – | – | – | – | – | – | – | MIC (Streptococcus pyogenes): 5.5 µg/mL (≈ 11.4 µM); MIC (Staphylococcus aureus [9]): 5.5 µg/mL (≈ 11.4 µM); MIC (Klebsiella pneumoniae [10]): 5.5 µg/mL (≈ 11.4 µM); MIC (Pseudomonas aeruginosa [11]): 5.5 µg/mL (≈ 11.4 µM); MIC (Escherichia coli [12]): 5.5 µg/mL (≈ 11.4 µM)
O=C(N/N=C/c1cn(-c2ccccc2)nc1-c1ccc(O)cc1O)c1cccc(-n2cc(-c3ccccc3)nn2)c1 | – | – | – | – | – | – | – | – | – | MIC (Bacillus cereus [5]): 2 µg/mL (≈ 3.69 µM); MIC (Staphylococcus aureus [6]): 2 µg/mL (≈ 3.69 µM); MIC (Escherichia coli [7]): 2 µg/mL (≈ 3.69 µM); MIC (Pseudomonas aeruginosa [8]): 2 µg/mL (≈ 3.69 µM)
O=C(N/N=C/c1cn(-c2ccccc2)nc1-c1ccc(Cl)cc1)c1cccc(-n2cc(-c3ccccc3)nn2)c1 | – | – | – | – | – | – | – | – | – | MIC (Bacillus cereus [5]): 4 µg/mL (≈ 7.35 µM); MIC (Staphylococcus aureus [6]): 4 µg/mL (≈ 7.35 µM); MIC (Escherichia coli [7]): 4 µg/mL (≈ 7.35 µM); MIC (Pseudomonas aeruginosa [8]): 4 µg/mL (≈ 7.35 µM)
O=c1cc(OCc2cn(Cc3ccc([N+](=O)[O-])cc3)nn2)c2ccccc2o1 | 2 µg/mL (≈ 5.29 µM) | 2 µg/mL (≈ 5.29 µM) | 2 µg/mL (≈ 5.29 µM) | 2 µg/mL (≈ 5.29 µM) | 2 µg/mL (≈ 5.29 µM) | 2 µg/mL (≈ 5.29 µM) | 2 µg/mL (≈ 5.29 µM) | 2 µg/mL (≈ 5.29 µM) | 2 µg/mL (≈ 5.29 µM) | –
N=C(N)c1ccc2[nH]c(-c3ccc(OCc4cn(-c5ccc(Cl)cc5)nn4)cc3)nc2c1 | – | – | – | – | – | – | – | – | – | MIC (Pseudomonas aeruginosa [13]): 16 µg/mL (≈ 36 µM); MIC (Klebsiella pneumoniae [14]): 16 µg/mL (≈ 36 µM); MIC (Enterococcus faecium): 16 µg/mL (≈ 36 µM); MIC (Staphylococcus aureus [15]): 16 µg/mL (≈ 36 µM); MIC (Escherichia coli [16]): 16 µg/mL (≈ 36 µM); MIC (Staphylococcus aureus [17]): 16 µg/mL (≈ 36 µM)
CC(C)NC(=N)c1ccc2[nH]c(-c3ccc(OCc4cn(Cc5ccccc5)nn4)cc3)nc2c1 | – | – | – | – | – | – | – | – | – | MIC (Pseudomonas aeruginosa [13]): 8 µg/mL (≈ 17.2 µM); MIC (Klebsiella pneumoniae [14]): 8 µg/mL (≈ 17.2 µM); MIC (Enterococcus faecium): 8 µg/mL (≈ 17.2 µM); MIC (Staphylococcus aureus [15]): 8 µg/mL (≈ 17.2 µM); MIC (Escherichia coli [16]): 8 µg/mL (≈ 17.2 µM); MIC (Staphylococcus aureus [17]): 8 µg/mL (≈ 17.2 µM)
c1ccc(Cn2cc(COc3ccc(-c4nc5cc(C6=NCCN6)ccc5[nH]4)cc3)nn2)cc1 | – | – | – | – | – | – | – | – | – | MIC (Pseudomonas aeruginosa [13]): 8 µg/mL (≈ 17.8 µM); MIC (Klebsiella pneumoniae [14]): 8 µg/mL (≈ 17.8 µM); MIC (Enterococcus faecium): 8 µg/mL (≈ 17.8 µM); MIC (Staphylococcus aureus [15]): 8 µg/mL (≈ 17.8 µM); MIC (Escherichia coli [16]): 8 µg/mL (≈ 17.8 µM); MIC (Staphylococcus aureus [17]): 8 µg/mL (≈ 17.8 µM)
O=Cc1cn(-c2ccccc2)nc1-c1cc(Cl)ccc1OCc1cn(Cc2cccc(Cl)c2)nn1 | – | – | – | – | – | – | – | – | – | MIC (Streptococcus pyogenes): 5.5 µg/mL (≈ 10.9 µM); MIC (Staphylococcus aureus [9]): 5.5 µg/mL (≈ 10.9 µM); MIC (Klebsiella pneumoniae [10]): 5.5 µg/mL (≈ 10.9 µM); MIC (Pseudomonas aeruginosa [11]): 5.5 µg/mL (≈ 10.9 µM); MIC (Escherichia coli [12]): 5.5 µg/mL (≈ 10.9 µM)
Cc1cc(OCc2cn(Cc3cccc(Cl)c3)nn2)cc2oc(=O)ccc12 | 2 µg/mL (≈ 5.24 µM) | 2 µg/mL (≈ 5.24 µM) | 2 µg/mL (≈ 5.24 µM) | 2 µg/mL (≈ 5.24 µM) | 2 µg/mL (≈ 5.24 µM) | 2 µg/mL (≈ 5.24 µM) | 2 µg/mL (≈ 5.24 µM) | 2 µg/mL (≈ 5.24 µM) | 2 µg/mL (≈ 5.24 µM) | –
Cc1cc(OCc2cn(Cc3ccc([N+](=O)[O-])cc3)nn2)cc2oc(=O)ccc12 | 2 µg/mL (≈ 5.1 µM) | 2 µg/mL (≈ 5.1 µM) | 2 µg/mL (≈ 5.1 µM) | 2 µg/mL (≈ 5.1 µM) | 2 µg/mL (≈ 5.1 µM) | 2 µg/mL (≈ 5.1 µM) | 2 µg/mL (≈ 5.1 µM) | 2 µg/mL (≈ 5.1 µM) | 2 µg/mL (≈ 5.1 µM) | –
Clc1ccc(-n2cc(COc3ccc(-c4nc5cc(C6=NCCN6)ccc5[nH]4)cc3)nn2)cc1 | – | – | – | – | – | – | – | – | – | MIC (Pseudomonas aeruginosa [13]): 8 µg/mL (≈ 17 µM); MIC (Klebsiella pneumoniae [14]): 8 µg/mL (≈ 17 µM); MIC (Enterococcus faecium): 8 µg/mL (≈ 17 µM); MIC (Staphylococcus aureus [15]): 8 µg/mL (≈ 17 µM); MIC (Escherichia coli [16]): 8 µg/mL (≈ 17 µM); MIC (Staphylococcus aureus [17]): 8 µg/mL (≈ 17 µM)
